From publication PMC7766656, “Evaluation of the In Vitro Cytotoxic Activity of Caffeic Acid Derivatives and Liposomal Formulation against Pancreatic Cancer Cell Lines” (Materials, 2020)

Assays:
[1] = test system: AsPC1 pancreatic cancer cells; experiment: MTT cytotoxicity assay, AsPC1 cells, 72 h; assay type: cell-based, human; details: for IC50: Homo sapiens, ASPC1, free compound in DMSO, MTT, 72 h; for AsPC1 SI: selectivity index = IC50 of NHDF/IC50 of AsPC1, free compound
Protocol: (§1) In vitro cell culture procedures were performed under aseptic conditions and cultures were maintained in an Innova CO-180 incubator (New Brunswick Scientific, Edison, NJ, USA). Pancreatic cancer cells, namely, BxPC-3 (primary pancreatic tumor) and AsPC-1 (from ascites of a patient with pancreatic cancer) cells, were cultured in RPMI-1640 medium supplemented with 10% heat inactivated fetal bovine serum (FBS), GlutaMAX™ and antibiotic-antimycotic. NHDF cells were cultured in alpha-MEM medium supplemented with 10% heat-inactivated FBS, GlutaMAX™ and antibiotic-antimycotic. Culture was carried out at 37 °C in a humidified atmosphere containing 5% CO2.
(§2) The effect of CA and its derivatives on cell viability was determined using a quantitative colorimetric MTT assay adapted from Mosmann. Cells were seeded in 96-well plates (5 × 10^3/well), in appropriate complete cell culture medium, for 24 h. The cells were treated with caffeic acid derivatives (in the range of 18.75–150 μM), DMSO (an equivalent volume of DMSO was used as a negative control, maximal concentration was 0.4% v/v) or liposomal formulations for 72 h. The medium containing tested chemicals was removed and MTT solution (working solution: stock 0.5 mg/mL was 10 times diluted in medium) was added to the wells, and the plates were incubated for a further 3 h. Subsequently, the MTT solution was replaced with DMSO (50 μL/well) to dissolve the purple formazan crystals. Absorbance was measured at 560 nm with a reference wavelength of 670 nm on an Asys UVM 340 Microplate Reader (Cambridge, UK). Results were expressed as the percentage of surviving cells, with respect to the control (the untreated cells) calculated as: Cell Viability (%) = (AT/AC) × 100(2) where: • AT = Absorbance of the treatment well (treated cells); • AC = Absorbance of the control well (not treated cells).
(§3) IC50 values were calculated using GraphPad Prism for Windows (GraphPad Software, La Jolla, CA, USA). The degree of selectivity of the CA derivatives against pancreatic cancer cells was expressed by the selectivity index (SI) where: SI = IC50 normal cells/IC50 cancer cells(3)
(§4) The purpose of this study was to obtain a preliminary insight into the anticancer activity of a series of caffeic acid derivatives. In order to determine the in vitro cytotoxicity of the resynthesized compounds, the activity of CA and twelve derivatives (Table 1), were screened against two human PC cell lines, BxPC3 and AsPC1, derived from primary and metastatic tumors, respectively. Since we were also interested in evaluating the degree of selectivity of the synthetized derivatives, we decided to use normal human dermal fibroblasts as control, healthy, cells. This made it possible to determine the specificity of the tested substances, in terms of their selectivity index towards pancreatic cancer cells. The cytotoxicity of the examined compounds was estimated using the classic MTT assay, which is based on the detection of the activity of oxidoreductive enzymes (mainly mitochondrial succinate dehydrogenase), which are present only in living, metabolically active cells. During the experiments, cells were incubated for 72 h in the presence of increasing concentrations of CA and the series of CA derivatives, in the range of 18.75–150 μM. […] Untreated cells were tested as the control group.

[2] = test system: BxPC3 pancreatic cancer cells; experiment: MTT cytotoxicity assay, BxPC3 cells, 72 h; assay type: cell-based, human; details: for IC50: Homo sapiens, BXPC-3, free compound in DMSO, MTT, 72 h; for BxPC3 SI: selectivity index = IC50 of NHDF/IC50 of BxPC3, free compound
Protocol: as §1, §2, §3, §4

[3] = test system: NHDF (normal human dermal fibroblasts); experiment: MTT cytotoxicity assay, NHDF control cells, 72 h; assay type: cell-based; details: free compound in DMSO
Protocol: as §1, §2, §3, §4

[4] = test system: MIAPACa-2 pancreatic cancer cell line; set-up: method as in PMID 26373299; details: 25 μg/mL (87 μM), 48 h incubation; cited from earlier work
[5] = test system: PANC-1 pancreatic cancer cell line; set-up: method as in PMID 26373299; details: 25 μg/mL (87 μM), 48 h incubation; cited from earlier work
[6] = test system: BxPC3 cells; set-up: method as in PMID 18824880; details: 10 μg/mL (35 μM); cited from earlier work
[7] = Compound encapsulation efficiency (EE) in liposomes; assay type: physicochemical; details: SPC:DSPE-PEG2000 95:5 mol/mol liposomes
Protocol: Caffeic acid derivatives encapsulated liposomes were prepared using the dry lipid film and extrusion method. A 1 mL solution of 10 mg of total lipids in chloroform (SPC:DSPE-PEG2000 95:5 mol/mol) were mixed with 1 mg of caffeic acid esters in methanol. Subsequently, solvents were removed from the samples via evaporation under a stream of nitrogen-gas to form a homogeneous lipid film on the flask wall and dried for 2 h at low pressure using a Savant Modulyo lyophilizer (Thermo Fisher Scientific, Waltham, MA, USA). Then, the lipid film was suspended by addition of 1 mL of sterile normal saline (0.9% NaCl), with mixing, until it was completely hydrated. […]
The lipid concentration was determined by the Stewart assay. The amount of (7) was determined spectrophotometrically at 290 nm and was calculated from the appropriate calibration curve according to the method described previously:EE (%) = CAf(mg/mL)/Lf(mg/mL)/CAi(mg/mL)/Li(mg/mL) × 100(1) where CAi(mg/mL)/Li(mg/mL) represents the (caffeic acid derivate)-to-lipid ratio at the point when the compound was mixed with the liposomes, and CAf(mg/mL)/Lf(mg/mL) is the final (caffeic acid derivate)-to-lipid ratio of the liposomes.

Encapsulation efficiency [7]	SMILES	IC50 [1]	IC50 [2]	IC50 [3]	AsPC1 SI [1]	BxPC3 SI [2]	Reduction of proliferation rate [4]	Reduction of proliferation rate [5]	Inhibition [6]
	COC(=O)/C=C/c1ccc(O)c(O)c1O [(5)]	42.5 ± 3.57 µM	46.6 ± 3.47 µM	98.8 ± 9.56 µM					
	CC(=O)/C=C/c1cccc(O)c1 [(8)]	19.2 ± 0.72 µM	30.5 ± 4.55 µM	79.7 ± 6.3 µM	4.14	2.61			
	CC(=O)/C=C/c1ccc(O)cc1 [(9)]	25.6 ± 2.17 µM	28.1 ± 3.36 µM	59.2 ± 11.6 µM	2.31	2.11			
	CC(=O)/C=C/c1ccc(O)cc1O [(10)]	35.3 ± 1.28 µM	34.1 ± 1.74 µM	54.6 ± 2.25 µM	1.54	1.60			
	CC(=O)/C=C/c1ccc(O)c(O)c1O [(11), 4-(2’, 3’, 4’-trihydroxyphenyl)-3 (E)-buten-2-one]	18.4 ± 0.74 µM	21.7 ± 1.51 µM	61.7 ± 10.5 µM	3.36	2.84			
	COc1cc(/C=C/C(C)=O)ccc1O [(12)]	38 ± 6.12 µM	29.9 ± 5.13 µM	51.5 ± 1.2 µM	1.36	1.72			
	O=C(/C=C/c1ccc(O)c(O)c1)OCCc1ccccc1 [CAPE, caffeic acid phenethyl ester]						65.7%	93.0%	80.4%
93%	CC(=O)/C=C/c1ccccc1O [Compound (7)]	18.7 ± 0.24 µM	22.4 ± 2.52 µM	61.1 ± 1.95 µM	3.27	2.73			
